The values below come from patent US8232409B2, “Heterocyclic benzimidazoles as TRPM8 modulators” (Janssen Pharmaceutica N.V., priority 2008, dated 2012).

Structures are written as SMILES. Counter-ions that a name gives are not always drawn.

Test [1] concerns CCI-induced cold hypersensitivity in Sprague Dawley rats. Nature of the test: Chronic constriction injury (CCI)-induced neuropathic pain, acetone-induced cold hypersensitivity. Type of test: in vivo. To be noted: po; rat CCI; 10 mg/kg p.o.; 3 h post-dose; read-out: % Inhibition (acetone-evoked paw withdrawals). The source says:
Male Sprague Dawley rats (225-450 g; n=5-8/treatment) were used to evaluate the ability of selected compounds of the Formula (I) to reverse CCI-induced cold hypersensitivity. Four loose ligatures of 4-0 chromic gut were surgically placed around the left sciatic nerve under inhalation anesthesia as described by Bennett et al. (Bennett, G. J.; Xie, Y. K. Pain 1988, 33(1), 87-107). Fourteen to 35 days following CCI surgery, subjects were placed in elevated observation chambers containing wire mesh floors and five applications of acetone (0.05 mL/application separated by approximately 5 minutes) were spritzed onto the plantar surface of the paw using a multidose syringe. An abrupt withdrawal or lifting of the paw was considered a positive response. The number of positive responses was recorded for each rat over the five trials. Following baseline withdrawal determinations, compounds of Formula (I) are administered in an appropriate vehicle, such as hydroxypropyl-β-cyclodextrin ([…]), methylcellulose, Methocel, 10% Solutol, or H2O, or the like, by the appropriate route, i.p. or p.o. The number of withdrawals were redetermined 1 to 3 h after compound administration. Results are presented as a percent inhibition of shakes, which was calculated for each subject as [1−(test compound withdrawals/pre-test withdrawals)]×100 and then averaged by treatment.

Test [2] relates to icilin-induced "wet-dog" shakes in Sprague Dawley rats. In words: Reversal of icilin-induced "wet-dog" shakes in rats. Type of test: in vivo. To be noted: po; rat; 10 mg/kg p.o.; 1 h post-icilin.
The target of a further test is T1, canine TRPM8 (Canis lupus familiaris, UniProt Q1A7N1).
T1 construct: expressed in transfected cells
Nature of the test: In vitro canine TRPM8 functional assay (icilin-induced intracellular Ca2+, FLIPR/FDSS).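 For all read-outs here: intracellular Ca2+ tracked with a Ca2+-sensitive fluorescent dye, compound applied 5 min before icilin was added.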 Type of test: cell-based. To be noted: HEK293 cells stably expressing canine TRPM8; for inhibition at 0.2 µM: 0.200 μM compound, icilin challenge (~80% maximal response), read-out: % Inh. @ 0.200 μM; for IC50: icilin challenge, eight-point dose-response.

T1 sequence (Q1A7N1 1-1104): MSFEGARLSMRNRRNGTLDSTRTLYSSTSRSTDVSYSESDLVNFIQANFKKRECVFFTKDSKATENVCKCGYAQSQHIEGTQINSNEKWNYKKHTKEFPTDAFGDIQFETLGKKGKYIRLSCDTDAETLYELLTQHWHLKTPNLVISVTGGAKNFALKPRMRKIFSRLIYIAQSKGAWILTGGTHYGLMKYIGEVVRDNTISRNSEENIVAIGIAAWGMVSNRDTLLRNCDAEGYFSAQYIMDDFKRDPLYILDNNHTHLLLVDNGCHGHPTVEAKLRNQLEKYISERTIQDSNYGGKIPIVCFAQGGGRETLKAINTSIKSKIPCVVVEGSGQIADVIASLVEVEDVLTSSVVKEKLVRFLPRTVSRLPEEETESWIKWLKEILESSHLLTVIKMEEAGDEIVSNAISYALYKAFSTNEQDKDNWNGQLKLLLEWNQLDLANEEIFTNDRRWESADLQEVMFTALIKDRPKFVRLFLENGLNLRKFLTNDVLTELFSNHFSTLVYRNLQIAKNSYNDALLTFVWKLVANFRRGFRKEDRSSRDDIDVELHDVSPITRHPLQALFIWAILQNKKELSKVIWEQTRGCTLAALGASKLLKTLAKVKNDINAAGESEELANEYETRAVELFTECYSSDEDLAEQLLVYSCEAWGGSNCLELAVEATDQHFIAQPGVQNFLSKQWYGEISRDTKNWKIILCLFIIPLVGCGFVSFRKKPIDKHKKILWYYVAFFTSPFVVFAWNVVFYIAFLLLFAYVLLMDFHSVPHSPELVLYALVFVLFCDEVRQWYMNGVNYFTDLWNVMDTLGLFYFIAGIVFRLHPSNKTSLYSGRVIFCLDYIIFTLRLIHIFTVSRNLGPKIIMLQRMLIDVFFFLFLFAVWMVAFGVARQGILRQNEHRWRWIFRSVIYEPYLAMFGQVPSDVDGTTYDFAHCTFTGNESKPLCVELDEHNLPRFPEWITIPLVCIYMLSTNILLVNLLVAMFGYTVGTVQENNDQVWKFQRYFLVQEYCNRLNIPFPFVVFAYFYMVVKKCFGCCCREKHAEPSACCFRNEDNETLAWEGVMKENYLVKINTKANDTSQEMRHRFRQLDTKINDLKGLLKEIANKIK

Turning to `FC(F)(F)Oc1ccccc1-c1ccc2[nH]c(C3=NOC4(CCCCC4)C3)nc2c1` [Cpd 7, 3-[5-(2-Trifluoromethoxy-phenyl)-1H-benzimidazol-2-yl]-1-oxa-2-aza-spiro[4.5]dec-2-ene hydrochloride], the values for the inhibition in vivo at 10 mg/kg in test [1] and in test [2] were 83% and more than 96%, respectively.
As to `FC(F)(F)c1ccccc1-c1ccc2nc(C3=NOC4(CCCCC4)C3)[nH]c2c1` [Cpd 1, 3-[5-(2-Trifluoromethyl-phenyl)-1H-benzimidazol-2-yl]-1-oxa-2-aza-spiro[4.5]dec-2-ene], the inhibition in vivo at 10 mg/kg in test [1] came out at 65%.
For `Fc1cccc(OC(F)(F)F)c1-c1ccc2[nH]c(C3=NOC4(CCCCC4)C3)nc2c1` [Cpd 8, 3-[5-(2-Fluoro-6-trifluoromethoxy-phenyl)-1H-benzimidazol-2-yl]-1-oxa-2-aza-spiro[4.5]dec-2-ene hydrochloride], in test [2], the inhibition in vivo at 10 mg/kg is more than 96%.
With `FC(F)(F)c1cc(-c2ccccc2Cl)cc2nc(C3=NOC4(CCCCC4)C3)[nH]c12` [Cpd 30, 3-[5-(2-Chloro-phenyl)-7-trifluoromethyl-1H-benzimidazol-2-yl]-1-oxa-2-aza-spiro[4.5]dec-2-ene hydrochloride], the inhibition in vivo at 10 mg/kg in test [1] was 62.9%; in test [2] it was more than 98%. The inhibition at 0.2 µM at canine TRPM8 came to 97%.
In the case of `Fc1ccccc1-c1cc(Cl)c2[nH]c(C3=NOC4(CCCCC4)C3)nc2c1` [Cpd 49, 3-[7-Chloro-5-(2-fluorophenyl)-1H-benzimidazol-2-yl]-1-oxa-2-aza-spiro[4.5]dec-2-ene methanesulfonate], at canine TRPM8, the inhibition at 0.2 µM was 101% and the IC50 – broadly, the concentration at which inhibition is half-maximal – amounted to 6.1 nM.
In the same order, the values of `Cc1cc(-c2ccccc2C(F)(F)F)cc2nc(C3=NOC4(CCOCC4)C3)[nH]c12` [Cpd 32, 3-[7-Methyl-5-(2-trifluoromethyl-phenyl)-1H-benzimidazol-2-yl]-1,8-dioxa-2-aza-spiro[4.5]dec-2-ene hydrochloride] are 100% and 4.9 nM.
For `OCCCc1cc(-c2ccccc2C(F)(F)F)cc2nc(C3=NOC4(CCCCC4)C3)[nH]c12` [Cpd 22, 3-[2-(1-Oxa-2-aza-spiro[4.5]dec-2-en-3-yl)-6-(2-trifluoromethylphenyl)-3H-benzimidazol-4-yl]-propan-1-ol hydrochloride], the inhibition at 0.2 µM on canine TRPM8 worked out at 103%.
Regarding `Clc1ccccc1-c1ccc2[nH]c(C3=NOC4(CCOCC4)C3)nc2c1` [Cpd 40, 3-[5-(2-Chloro-phenyl)-1H-benzimidazol-2-yl]-1,8-dioxa-2-aza-spiro[4.5]dec-2-ene hydrochloride], at canine TRPM8, the inhibition at 0.2 µM is 98% and the IC50 came out at 11 nM.
Consider `FC(F)(F)c1ccccc1-c1cc(C(F)(F)F)c2[nH]c(C3=NOC4(CCCCC4)C3)nc2c1` [Cpd 27, 3-[7-Trifluoromethyl-5-(2-trifluoromethyl-phenyl)-1H-benzimidazol-2-yl]-1-oxa-2-aza-spiro[4.5]dec-2-ene hydrochloride], for which the inhibition in vivo at 10 mg/kg in test [1] was 83%; in test [2], more than 99%. Besides, the inhibition at 0.2 µM at canine TRPM8 amounted to 100%.
As for `CC1C(c2nc3cc(-c4ccccc4C(F)(F)F)cc(C(F)(F)F)c3[nH]2)=NOC12CCCCC2` (centres unmarked) [Cpd 28, 4-Methyl-3-[7-trifluormethyl-5-(2-trifluoromethyl-phenyl)-1H-benzimidazol-2-yl]-1-oxa-2-aza-spiro[4.5]dec-2-ene hydrochloride], in test [2], the inhibition in vivo at 10 mg/kg was 30%. In addition, on canine TRPM8, the inhibition at 0.2 µM amounted to 101% and the midpoint of inhibition, the IC50, lay at 1.1 nM.
For `Fc1ccccc1-c1ccc2[nH]c(C3=NOC4(CCCCC4)C3)nc2c1` [Cpd 23, 3-[5-(2-Fluoro-phenyl)-1H-benzimidazol-2-yl]-1-oxa-2-aza-spiro[4.5]dec-2-ene trifluoroacetic acid salt], the inhibition at 0.2 µM at canine TRPM8 was 103%.
For the compound `Cc1c(-c2ccccc2C(F)(F)F)cc(C)c2[nH]c(C3=NOC4(CCCCC4)C3)nc12` [Cpd 54, 3-[4,7-Dimethyl-5-(2-trifluoromethylphenyl)-1H-benzimidazol-2-yl]-1-oxa-2-aza-spiro[4.5]dec-2-ene hydrochloride], on canine TRPM8, the inhibition at 0.2 µM amounted to 97% and the half-maximal inhibitory concentration (IC50) was found to be 5.8 nM.
In the same order, the values of `Fc1cccc(F)c1-c1ccc2[nH]c(C3=NOC4(CCOCC4)C3)nc2c1` [Cpd 38, 3-[5-(2,6-Difluoro-phenyl)-1H-benzimidazol-2-yl]-1,8-dioxa-2-aza-spiro[4.5]dec-2-ene hydrochloride] are 99% and 8.3 nM.
With `FC(F)(F)Oc1ccccc1-c1cc(C(F)(F)F)c2[nH]c(C3=NOC4(CCCCC4)C3)nc2c1` [Cpd 51, 3-[5-(2-Trifluoromethoxyphenyl)-7-trifluoromethyl-1H-benzimidazol-2-yl]-1-oxa-2-aza-spiro[4.5]dec-2-ene hydrochloride], the inhibition in vivo at 10 mg/kg is 57.1% in test [1] and more than 98% in test [2]. Further, on canine TRPM8, the inhibition at 0.2 µM was found to be 97%.
In the same order, the values of `Fc1ccccc1-c1cc(C(F)(F)F)c2[nH]c(C3=NOC4(CCCCC4)C3)nc2c1` [Cpd 53, 3-[5-(2-Fluorophenyl)-7-trifluoromethyl-1H-benzimidazol-2-yl]-1-oxa-2-aza-spiro[4.5]dec-2-ene hydrochloride] are 42.9%, more than 98% and 97%.
As to `CC(C)(O)CCc1cc(-c2ccccc2C(F)(F)F)cc2nc(C3=NOC4(CCCCC4)C3)[nH]c12` [Cpd 43, 2-Methyl-4-[2-(1-oxa-2-aza-spiro[4.5]dec-2-en-3-yl)-6-(2-trifluoromethylphenyl)-3H-benzimidazol-4-yl]-butan-2-ol], at canine TRPM8, the inhibition at 0.2 µM is 99% and the IC50 came out at 1.7 nM.
For `CC1C(c2nc3cc(-c4ccccc4C(F)(F)F)ccc3[nH]2)=NOC12CCCCC2` (centres unmarked) [Cpd 15, 4-Methyl-3-[5-(2-trifluoromethyl-phenyl)-1H-benzimidazol-2-yl]-1-oxa-2-aza-spiro[4.5]dec-2-ene hydrochloride], on canine TRPM8, the inhibition at 0.2 µM is 102% and the concentration for half-maximal inhibition (IC50) worked out at 3.9 nM.
For `Cc1c(-c2ccccc2C(F)(F)F)cc(Cl)c2[nH]c(C3=NOC4(CCCCC4)C3)nc12` [Cpd 55, 3-[7-Chloro-4-methyl-5-(2-trifluoromethylphenyl)-1H-benzimidazol-2-yl]-1-oxa-2-aza-spiro[4.5]dec-2-ene hydrochloride], on canine TRPM8, the inhibition at 0.2 µM was found to be 97% and the IC50 stood at 4.7 nM.
Taken in the same sequence, the figures for `Cc1cc(-c2ccccc2OC(F)F)cc2nc(C3=NOC4(CCCCC4)C3)[nH]c12` [Cpd 20, 3-[5-(2-Difluoromethoxyphenyl)-7-methyl-1H-benzimidazol-2-yl]-1-oxa-2-aza-spiro[4.5]dec-2-ene hydrochloride] were 103% and 1.8 nM.
In the same order, the values of `OC/C=C\c1cc(-c2ccccc2C(F)(F)F)cc2nc(C3=NOC4(CCCCC4)C3)[nH]c12` [Cpd 25, 3-[2-(1-Oxa-2-aza-spiro[4.5]dec-2-en-3-yl)-6-(2-trifluoromethylphenyl)-3H-benzimidazol-4-yl]-prop-2-en-1-ol] are 100% and 0.8 nM.
Taken in the same sequence, the figures for `FC(F)(F)Oc1ccccc1-c1ccc2nc(C3=NC4(CCCCC4)CO3)[nH]c2c1` [Cpd 2, 2-[5-(2-Trifluoromethoxy-phenyl)-1H-benzimidazol-2-yl]-3-oxa-1-aza-spiro[4.5]dec-1-ene] were 106% and 7 nM.
With `FC(F)(F)Cc1ccccc1-c1ccc2[nH]c(C3=NOC4(CCCCC4)C3)nc2c1` [Cpd 11, 3-{5-[2-(2,2,2-Trifluoroethyl)-phenyl]-1H-benzimidazol-2-yl}-1-oxa-2-aza-spiro[4.5]dec-2-ene], on canine TRPM8, the inhibition at 0.2 µM is 102% and the IC50 worked out at 1.5 nM.
Taken in the same sequence, the figures for `CC1(C)CCC2(CC1)CC(c1nc3cc(-c4ccccc4Cl)ccc3[nH]1)=NO2` [Cpd 37, 3-[5-(Chloro-phenyl)-1H-benzimidazol-2-yl]-8,8-dimethyl-1-oxa-2-aza-spiro[4.5]dec-2-ene hydrochloride] were 99% and 5.2 nM.
For `Fc1cc(-c2ccccc2C(F)(F)F)cc2nc(C3=NOC4(CCCCC4)C3)[nH]c12` [Cpd 14, 3-[7-Fluoro-5-(2-trifluoromethyl-phenyl)-1H-benzimidazol-2-yl]-1-oxa-2-aza-spiro[4.5]dec-2-ene hydrochloride], at canine TRPM8, the inhibition at 0.2 µM came out at 102%.
As to `FC(F)(F)c1ccccc1-c1cc(Cl)c2[nH]c(C3=NOC4(CCCCC4)C3)nc2c1` [Cpd 16, 3-[7-Chloro-5-(2-trifluoromethylphenyl)-1H-benzimidazol-2-yl]-1-oxa-2-aza-spiro[4.5]dec-2-ene hydrochloride], the inhibition in vivo at 10 mg/kg in test [1] was 82.5%; in test [2], more than 99%.
